Tested on: Plasmodium berghei
Experiment: Luciferase/luciferin-expressing antifolate-resistant parasites were used to infect a culture of HepG2 cells that were pre-incubated with compounds. Infected hepatocytes emit light due to the luciferase reaction. Assay results are presented as the percent inhibition of light emission compared to control. […]
Assay type: functional
Settings: sporozoite; for IC90: read-out: LUCIFERASE INFECTION ASSAY - IC90
[1] = read-out: LUCIFERASE INFECTION ASSAY - IC50

Row | SMILES | IC90 | IC50 [1] | also measured
1 | Cc1cc(Nc2cccc(C(F)(F)F)c2)n2ncc(C#N)c2n1 | 3.35 µM |  | IC50 (HEPG2TOX_HILL_SLOPE 1.43, HEPG2TOX_R_SQUARED 0.906, PBLUC_HILL_SLOPE 4.64, PBLUC_R_SQUARED 0.533, read-out: LUCIFERASE INFECTION ASSAY - IC50): 2.09 µM
2 | COc1ccc2cc(CNc3ncnc4n[nH]cc34)ccc2c1 | 4.29 µM |  | IC50 (HEPG2TOX_HILL_SLOPE 1.04, HEPG2TOX_R_SQUARED 0.97, PBLUC_HILL_SLOPE 1.64, PBLUC_R_SQUARED 0.72, read-out: LUCIFERASE INFECTION ASSAY - IC50): 1.13 µM
3 | CCCNC(=O)c1c(NC(=O)c2ccc(CC)cc2)nc2ccccn12 | 3.4 µM |  | IC50 (HEPG2TOX_HILL_SLOPE 3.85, HEPG2TOX_R_SQUARED 0.726, PBLUC_HILL_SLOPE 11.9, PBLUC_R_SQUARED 0.398, read-out: LUCIFERASE INFECTION ASSAY - IC50): 2.83 µM
4 | COCCOc1ccc(C(F)(F)F)cc1NC(=O)c1ccc(SCc2cscn2)cc1 | > 10 µM |  | IC50 (PBLUC_HILL_SLOPE 14.5, PBLUC_R_SQUARED 0.0793, read-out: LUCIFERASE INFECTION ASSAY - IC50): 8.84 µM
5 | Cc1nc(NCc2ccc(N3CCN(C)CC3)nc2)c2c(-c3ccccc3)csc2n1 | 3.73 µM |  | IC50 (HEPG2TOX_HILL_SLOPE 1.47, HEPG2TOX_R_SQUARED 0.785, PBLUC_HILL_SLOPE 14.9, PBLUC_R_SQUARED 0.788, read-out: LUCIFERASE INFECTION ASSAY - IC50): 3.22 µM
6 | CC(C)c1nc(-c2c(N)n(Cc3ccccc3)c(=O)n(C)c2=O)sc1C(=O)c1cc(F)ccc1F | > 10 µM | 9.55 µM | 
7 | CC1CCc2sc(-c3nnc(SCC(=O)Nc4sccc4C(N)=O)o3)cc2C1 (stereo unspecified) | 9.89 µM |  | IC50 (PBLUC_HILL_SLOPE 4.8, PBLUC_R_SQUARED 0.154, read-out: LUCIFERASE INFECTION ASSAY - IC50): 6.26 µM
8 | O=C(COc1ccccc1C(=O)Nc1nc(-c2ccccc2)cs1)Nc1cccc(C(F)(F)F)c1 | 5.93 µM |  | IC50 (HEPG2TOX_HILL_SLOPE 11.2, HEPG2TOX_R_SQUARED 0.982, PBLUC_HILL_SLOPE 4.71, PBLUC_R_SQUARED 0.747, read-out: LUCIFERASE INFECTION ASSAY - IC50): 3.72 µM
9 | CCOC(=O)C1=C(CN2CCN(C(c3ccc(F)cc3)c3ccc(F)cc3)CC2)NC(=O)NC1CC (stereo unspecified) | > 10 µM | > 10 µM | 
10 | COc1cc(-c2cc(-c3ccc(S(C)(=O)=O)cc3)cnc2N)ccc1O | 1.1 µM |  | IC50 (HEPG2TOX_HILL_SLOPE 0.691, HEPG2TOX_R_SQUARED 0.303, PBLUC_HILL_SLOPE 2.60E+03, PBLUC_R_SQUARED 0.903, read-out: LUCIFERASE INFECTION ASSAY - IC50): 1.1 µM
11 | CC1=NN(c2ccccc2)C(=O)/C1=C\c1c(C)nn(-c2ccccc2)c1Sc1nc2ccccc2s1 | > 10 µM |  | IC50 (PBLUC_HILL_SLOPE 3.11, PBLUC_R_SQUARED 0.577, read-out: LUCIFERASE INFECTION ASSAY - IC50): 6.6 µM
12 | CCOC(C(=O)Nc1ccccc1Cc1ccccc1)(c1ccccc1)c1ccccc1 | > 10 µM | > 10 µM | 
13 | COc1cc(C)c(C(c2ccc(N(C)C)cc2)c2ccc(N(C)C)cc2)cc1C | 6.45 µM |  | IC50 (HEPG2TOX_HILL_SLOPE 7.41, HEPG2TOX_R_SQUARED 0.305, PBLUC_HILL_SLOPE 5.23, PBLUC_R_SQUARED 0.705, read-out: LUCIFERASE INFECTION ASSAY - IC50): 4.24 µM
14 | O=C(Nc1cccc(C(F)(F)F)c1)Nc1ccc2c(c1)no[n+]2[O-] | 1.2 µM |  | IC50 (HEPG2TOX_HILL_SLOPE 9.23, HEPG2TOX_R_SQUARED 0.804, PBLUC_HILL_SLOPE 15.5, PBLUC_R_SQUARED 0.688, read-out: LUCIFERASE INFECTION ASSAY - IC50): 1.04 µM
15 | CCOC(=O)/C(=C\c1cccc(F)c1)C1=Nn2c(nnc2-c2ccc(OC)cc2)SC1 | 6.43 µM |  | IC50 (HEPG2TOX_HILL_SLOPE 19.5, HEPG2TOX_R_SQUARED 0.849, PBLUC_HILL_SLOPE 122, PBLUC_R_SQUARED 0.536, read-out: LUCIFERASE INFECTION ASSAY - IC50): 6.31 µM
16 | CCOc1cc(/C=C/C(=O)c2cccs2)cc(Br)c1OC | > 10 µM |  | IC50 (HEPG2TOX_HILL_SLOPE 0.301, HEPG2TOX_R_SQUARED 0.1, PBLUC_HILL_SLOPE 0.921, PBLUC_R_SQUARED 0.199, read-out: LUCIFERASE INFECTION ASSAY - IC50): > 10 µM
17 | COc1ccc(-c2noc(CCCCCNC(=O)c3ccc(-n4cnnn4)cc3)n2)cc1 | > 10 µM | > 10 µM | 
18 | CCN(CC)c1ccc(/C=N/NC(=S)NC(C)C)c(O)c1 | > 10 µM |  | IC50 (PBLUC_HILL_SLOPE 3.12, PBLUC_R_SQUARED 0.566, read-out: LUCIFERASE INFECTION ASSAY - IC50): 7.29 µM
19 | O=c1nc(CCc2ccc3c(c2)OCCO3)[nH]c2ccccc12 | 3.7 µM |  | IC50 (PBLUC_HILL_SLOPE 12.5, PBLUC_R_SQUARED 0.668, read-out: LUCIFERASE INFECTION ASSAY - IC50): 3.11 µM
20 | CCCc1c(NC(=O)Nc2ccc(F)cc2)cnn1-c1ccccc1 | 6.91 µM |  | IC50 (HEPG2TOX_HILL_SLOPE 4.02, HEPG2TOX_R_SQUARED 0.285, PBLUC_HILL_SLOPE 3.66, PBLUC_R_SQUARED 0.261, read-out: LUCIFERASE INFECTION ASSAY - IC50): 3.79 µM
21 | Cc1c(-c2ccccc2)nc2ccccc2c1C(=O)OCC(=O)c1cc(C)n(Cc2ccco2)c1C | > 10 µM | > 10 µM | 
22 | O=C(Nc1cc(Cl)cc(Cl)c1)c1cc(Br)ccc1O | 1.35 µM |  | IC50 (HEPG2TOX_HILL_SLOPE 1.83, HEPG2TOX_R_SQUARED 0.974, PBLUC_HILL_SLOPE 1.75, PBLUC_R_SQUARED 0.827, read-out: LUCIFERASE INFECTION ASSAY - IC50): 0.385 µM

Row | SMILES | IC90 | IC50 [1] | also measured
23 | COc1ccc2nc(C)cc(NC(C)CCc3ccccc3)c2c1 (stereo unspecified) | > 10 µM |  | IC50 (PBLUC_HILL_SLOPE 1.9, PBLUC_R_SQUARED 0.397, read-out: LUCIFERASE INFECTION ASSAY - IC50): 6.04 µM
24 | COc1ccc(NC(C(=O)Nc2cccc(C(F)(F)F)c2)c2ccccc2)cc1OC (stereo unspecified) | > 10 µM |  | IC50 (PBLUC_HILL_SLOPE 1.54, PBLUC_R_SQUARED 0.609, read-out: LUCIFERASE INFECTION ASSAY - IC50): 5.09 µM
25 | CCc1ccc(C(NCC(=O)NC(=O)NC)C(C)C)cc1 (stereo unspecified) | > 10 µM | > 10 µM | 
26 | Cc1cc(=O)n2nc(COC(=O)c3ccccc3Nc3ccccc3)sc2n1 | > 10 µM | > 10 µM | 
27 | Cc1ccc(CN(CCc2ccccc2)Cn2nc(CCC(N)=O)n(C3CC3)c2=S)s1 | > 10 µM | > 10 µM | 
28 | CCC(C)c1ccc(-n2c(=O)c3ccccc3n3c(SCCc4ccncc4)nnc23)cc1 (stereo unspecified) | 9.16 µM |  | IC50 (PBLUC_HILL_SLOPE 14.1, 1.41, PBLUC_R_SQUARED 0.703, 0.467, read-out: LUCIFERASE INFECTION ASSAY - IC50): 5.1 µM
29 | COc1ccc(CCn2c(C)nc3c(cnn3-c3ccccc3)c2=O)cc1 | 3.03 µM | 0.489 µM | 
30 | CCCN(CC(=O)Nc1ccc(Cl)cc1Cl)C(=O)c1cn2ccccc2n1 | > 10 µM |  | IC50 (HEPG2TOX_HILL_SLOPE 2.93, HEPG2TOX_R_SQUARED 0.207, PBLUC_HILL_SLOPE 1.46, PBLUC_R_SQUARED 0.174, read-out: LUCIFERASE INFECTION ASSAY - IC50): > 10 µM
31 | CC(C)c1ccc(-c2ccc3nnc(-c4ccc(OCCCN(C)C)cc4)n3c2)cc1 | > 10 µM | > 10 µM | 
32 | O=S(=O)(c1ccc(C(F)(F)F)cn1)c1cccs1 | > 11.3 µM |  | IC50 (PBLUC_HILL_SLOPE 0.531, PBLUC_R_SQUARED 0.132, read-out: LUCIFERASE INFECTION ASSAY - IC50): > 11.3 µM
33 | COc1ccc(OCCN2CCN(C(C)C(=O)Nc3sccc3C(N)=O)CC2)cc1 (stereo unspecified) | > 10 µM | > 10 µM | 
34 | COc1ccccc1N1CCN(S(=O)(=O)c2cccc(Cl)c2)CC1 | > 9 µM | > 9 µM | 
35 | c1ccc(-c2csc3nc(-c4cccnc4)nc(NCC45CC6CC(CC(C6)C4)C5)c23)cc1 | > 10 µM | > 10 µM | 
36 | O=C(Cc1cccc2ccccc12)NCC(=O)Nc1nc(-c2ccccc2)cs1 | > 10 µM | > 10 µM | 
37 | O=C(Nc1csc([N+](=O)[O-])c1)Nc1ccccc1Cl | > 11.1 µM |  | IC50 (PBLUC_HILL_SLOPE 16.6, PBLUC_R_SQUARED 0.0194, read-out: LUCIFERASE INFECTION ASSAY - IC50): 11 µM
38 | Cc1ccc(NS(=O)(=O)c2ccc(C(=O)Nc3ncccc3O)cc2)cc1C | 1.88 µM |  | IC50 (FFLUC_HILL_SLOPE 12.3, FFLUC_R_SQUARED 0.189, HEPG2TOX_HILL_SLOPE 11.2, HEPG2TOX_R_SQUARED 0.187, PBLUC_HILL_SLOPE 1.78, PBLUC_R_SQUARED 0.764, read-out: LUCIFERASE INFECTION ASSAY - IC50): 0.549 µM
39 | O=C(NNC(=S)Nc1cccc(C(F)(F)F)c1)c1cccn1-c1ccc(F)cc1 | > 7.81 µM |  | IC50 (HEPG2TOX_HILL_SLOPE 5.96, HEPG2TOX_R_SQUARED 0.739, PBLUC_HILL_SLOPE 1.03, PBLUC_R_SQUARED 0.767, read-out: LUCIFERASE INFECTION ASSAY - IC50): > 7.81 µM
40 | CSc1cc(-c2sc3scc(C)c3c2C)n[nH]1 | > 11.8 µM | > 11.8 µM | 
41 | Cc1nn(Cc2ccccc2Cl)c(Cl)c1/C=C/C(=O)OC(C)C(=O)N1CCCc2ccccc21 (stereo unspecified) | > 10 µM | > 10 µM | 
42 | CC(=O)Nc1nc(C(=O)Nc2ccc(Nc3ccccc3)cc2)cs1 | > 10 µM |  | IC50 (HEPG2TOX_HILL_SLOPE 2.43, HEPG2TOX_R_SQUARED 0.519, PBLUC_HILL_SLOPE 2.7, PBLUC_R_SQUARED 0.347, read-out: LUCIFERASE INFECTION ASSAY - IC50): 4.68 µM
43 | CCOC(=O)c1sc(N(Cc2ccccc2)C(=O)C2CC2C)nc1C (stereo unspecified) | > 10 µM |  | IC50 (PBLUC_HILL_SLOPE 0.389, PBLUC_R_SQUARED 0.128, read-out: LUCIFERASE INFECTION ASSAY - IC50): 1.6 µM
